Assay results: paper PMC6892925, “Development of Novel Silyl Cyanocinnamic Acid Derivatives as Metabolic Plasticity Inhibitors for Cancer Treatment” (Scientific Reports, 2019)
“Also recorded” adds a separate entry of the source. Read-outs that look alike come from different tables or passages of the source.

Tests used:
MCT1 = target: T1, MCT1 (Rattus norvegicus, UniProt P53987); experiment: MCT1 inhibition assay via L-[14C]-lactate uptake in RBE4 cells; assay type: cell-based; conditions: for MCT1 inhibition properties: at the concentrations tested, RBE4 cells
T1 construct: using an L-[^14C]-lactate study on the MCT1 expressing RBE4 cell line; endogenous in cells; host or cells: RBE4 (rat brain endothelial 4) cells, a gift from F. Roux
T1 sequence (P53987 1-494): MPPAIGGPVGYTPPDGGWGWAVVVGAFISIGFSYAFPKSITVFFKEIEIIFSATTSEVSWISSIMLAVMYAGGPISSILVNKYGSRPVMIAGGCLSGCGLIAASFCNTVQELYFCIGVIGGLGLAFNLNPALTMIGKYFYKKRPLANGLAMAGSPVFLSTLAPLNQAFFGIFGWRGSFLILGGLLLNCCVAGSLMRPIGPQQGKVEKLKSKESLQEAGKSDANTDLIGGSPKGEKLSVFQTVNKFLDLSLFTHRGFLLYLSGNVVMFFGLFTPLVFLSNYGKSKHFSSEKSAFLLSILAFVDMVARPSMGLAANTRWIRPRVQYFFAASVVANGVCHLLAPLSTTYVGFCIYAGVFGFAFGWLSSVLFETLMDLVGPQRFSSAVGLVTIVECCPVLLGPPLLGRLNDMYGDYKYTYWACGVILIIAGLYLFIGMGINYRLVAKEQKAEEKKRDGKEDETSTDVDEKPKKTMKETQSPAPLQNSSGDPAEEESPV

[1] = test system: MCF7, 4T1, WiDr, and MDA-MB-231 cell lines; experiment: MTT cell proliferation inhibition, all cell lines tested; assay type: cell-based; conditions: for cell proliferation inhibition: concentrations up to 500 µM, solubility limit above (0.1% DMSO in growth media)
Method: (§1) Cell proliferation inhibition was evaluated using 3-(4,5-dimethylthiazol-2-yl)-2,5-diphenyl tetrazolium bromide (MTT) assay as reported previously[19].

MDA-MB-231 cell line = experiment: MTT cell proliferation inhibition assay; conditions: Homo sapiens, MDA-MB-231, read-out: MTT IC50
Method: (§2) Human triple-negative breast cancer MDA-MB-231 cells (ATCC) were grown in DMEM supplemented with 10% FBS (Atlanta Biologicals) and penicillin-streptomycin (50U/ml, 50 µg/ml, Invitrogen). Human colorectal adenocarcinoma WiDr cells (ATCC) were cultured in MEM medium supplemented with 10% FBS and penicillin-streptomycin. […] Murine metastatic breast cancer 4T1 cells were grown in RPMI-1640 supplemented with 10% FBS and penicillin-streptomycin. Human estrogen receptor positive breast cancer MCF7 cells (Masonic Cancer Center, University of Minnesota) were grown in MEM supplemented with 6% FBS, EGF (0.01 µg/ml), NEAA, HDC (1 µg/ml), insulin (10 µg/ml), HEPES (12 mM) and sodium pyruvate (1 mM).
as §1

4T1 cell line = experiment: MTT cell proliferation inhibition assay; conditions: Mus musculus, 4T1, read-out: MTT IC50
Method: as §2, §1

MCF7 cell line = experiment: MTT cell proliferation inhibition assay; conditions: Homo sapiens, MCF7, read-out: MTT IC50
Method: as §2, §1

WiDr cell line = experiment: MTT cell proliferation inhibition assay; conditions: Homo sapiens, read-out: MTT IC50
Method: as §2, §1

WiDr cells = experiment: Western blot analysis of cell damage and death markers; assay type: cell-based, human; conditions: WiDr cultures treated with 2a plus NAC
Method: Owing to the enhanced antiproliferative effects induced by test compound 2a when compared to CHC, western blot analysis of cell damage and death markers was performed. The master transcription factor p53 regulates the expression of numerous genes involved in cancer progression and is responsible for balancing proliferation and apoptosis. In this regard, we evaluated the effects of compound treatment on p53 expression. Literature reports indicate that MDA-MB-231 and WiDr cells express distinct homozygous mutant forms of p53 that promote an aggressive malignant phenotype with resistance to apoptosis[36],[37]. […] Further, PARP1 is involved in the DNA repair pathway through sensing DNA-strand breaks and recruiting repair enzymes. Importantly, PARP1 is a target of caspase cleavage under apoptotic conditions, and the appearance of the PARP1 cleavage product is a widely used indicator of cellular apoptosis. […] Additionally, DNA damage may be a downstream effect of apoptotic nuclease activity or an increase in reactive oxygen species (ROS) from damaged mitochondria; as illustrated in microscopy and seahorse experiments. Histone 2AX phosphorylation (γH2AX) resulting from DNA single- and double-strand breaks is a widely employed marker for DNA damage. In this regard, we investigated the effect of 2a on DNA damage marker γH2AX (phosphorylated Ser139, histone H2AX) with a phospho-specific antibody. […] Due to the potential of ROS leading to DNA damage and H2AX phosphorylation, we investigated the ability of antioxidant N-acetyl cysteine (NAC) to inhibit DNA damage of compound 2a as evidenced by H2AX phosphorylation in the highly oxidative cell line WiDr (Fig. 4A).
50,000 WiDr or MDA-MB-231 cells were seeded in 100 mm dishes and were incubated for 48 hours. Cells were then treated with test compounds for 24 hours, washed twice with 1X PBS, solubilized in 200 μL SDS boiling buffer (5% w/v SDS, 10% v/v glycerol, and 60 mM Tris pH 6.8), and sonicated. The resulting cell lysate was then assayed for protein using the Pierce BCA protocol. A volume of test sample containing 10 μg protein was loaded on SDS PAGE gel for electrophoresis according to manufacturer’s instructions. Proteins were transferred from the gel to nitrocellulose membrane according to the manufacturer’s instructions. Membranes were blocked for 1 hr at 35 °C using 10% (w/v) non-fat milk in PBST and were exposed to primary antibody. PARP1 (rabbit polyclonal IgG, Origene, TA321555), p53 (rabbit polyclonal IgG, Santa Cruz, sc50329), and γ-H2AX (Upstate 05-636, 1:2500) were detected and visualized using HRP chemiluminescence. For relative quantitation, β-actin (mouse monoclonal IgG C4, Millipore, MAB1501, 1:10,000) and GAPDH (mouse monoclonal IgG, Santa Cruz, sc47724, 1:100) were detected and measured as a control protein.

[2] = L-[14C]-lactate uptake, MCT1 expressing RBE4 cell line, average ± SEM of three separate experiments, read-out: MCT1 IC50

SMILES | IC50 (MCT1; [2]) | MCT1 inhibition properties (MCT1) | cell proliferation inhibition [1] | IC50 (MDA-MB-231 cell line) | IC50 (4T1 cell line) | IC50 (MCF7 cell line) | IC50 (WiDr cell line) | IC50 (MCT1) | concentration at which MCT1 function is inhibited (MCT1; lactate uptake assay, discussion statement) | IC50 ([1]; read-out: MTT IC50 values, span over all the cell lines tested) | effect on 2a-induced H2AX activation (WiDr cells) | effect on 2a-induced PARP1 cleavage (WiDr cells)
N#C/C(=C\c1ccc(OCCO)cc1)C(=O)O [2c] | > 5 µM | did not exhibit MCT1 inhibition properties | did not show significant cell proliferation inhibition; also recorded: did not exhibit any cell proliferation inhibition properties | > 0.5 mM | > 0.5 mM | > 0.5 mM | > 500 µM | – | – | – | – | –
N#C/C(=C\c1ccc(OCCBr)cc1)C(=O)O [2d] | > 5 µM | did not exhibit MCT1 inhibition properties | did not show significant cell proliferation inhibition; also recorded: did not exhibit any cell proliferation inhibition properties | > 0.5 mM | > 0.5 mM | > 0.5 mM | > 500 µM | – | – | – | – | –
N#CC(=Cc1ccc(O)cc1)C(=O)O [CHC 1, α-cyano-4-hydroxycinnamic acid, reference compound] | – | – | – | 5.3 ± 0.13 mM | 3.6 ± 0.3 mM | 4 ± 0.13 mM | 1100 ± 96 µM | > 150 µM | ≥ 150 µM | 1.1 to 5.3 mM | – | –
CC(=O)N[C@@H](CS)C(=O)O [NAC, N-acetyl cysteine, reference compound] | – | – | – | – | – | – | – | – | – | – | significantly reduced | did not reverse PARP1 cleavage
